For data set [1], the system named is insulin-stimulated glycogen synthesis in soleus muscle. As to the kind of experiment: soleus muscle assay (insulin-stimulated glycogen synthesis). The arrangement: species or system rat. The following applies: for amylin antagonist action in the soleus muscle assay: in the presence of 100 nM rat amylin. As to the method: Concentrations of peptide dissolved in carrier-free buffers are determined by quantitative amino acid analysis, as described therein. The ability of compounds to act as antagonists in this assay is determined by measuring IC50 values. Standard errors are determined by fitting of sigmoidal dose response curves using a four parameter logistic equation (De Lean, A., Munson, P. J., Guardabasso, V. and Rodbard, D. (1988) ALLFIT, Version 2.7, National Institute of Child Health and Human Development, N.I.H. Bethesda, Md., 1 diskette). […] Similar results were obtained with the other antagonist compounds listed above.

The conditions of data set [2]: fed rats, antagonist preinfusion; cited from earlier work.
The next data set addresses CGRP receptors (Homo sapiens, UniProt O60894+Q16602). Briefly: affinity for CGRP receptors in vitro. In kind it is binding.
The next data set concerns plasma renin activity. Briefly: plasma renin activity after subcutaneous rat amylin in anesthetized rats. The following applies: 0.5 mg i.v. bolus + 1 mg/hr infusion before 100 μg s.c. rat amylin, n=1, FIG. 3. In kind it is in vivo, Male Harlan Sprague Dawley rats. As to the method: (§1) Male Harlan Sprague Dawley rats were housed at 22.7°±0.8° C. in a 12:12 hour light:dark cycle (experiments being performed during the light cycle) and fed and watered ad libitum (Diet LM-485, Teklad, Madison, Wis.). Animals used were aged 87-94 days and weighed 353-392 g. They were deprived of food for ~20 hours prior to experimentation.
Anesthesia was induced with 5% halothane, maintained at 2% during surgery and at 0.8-1% during recordings. Tracheotomy and cannulation of the right femoral artery and saphenous vein were performed. […] Colonic temperature was measured using a thermistor probe and controller (Model 73A, YSI, Yellow Springs, Ohio) which provided closed-loop control of core temperature by switching a heated operating table. […]
The remainder was frozen at -20° C. for measurement of plasma renin activity. Plasma renin activity was measured using the Gammacoat™ [^125 I] radioimmunoassay kit (Incstar Corp, Stillwater, Minn.) modified to accomodate small sample volumes. The assay system measured the renin-catalysed rate of generation of angiotensin-I in the presence of phenylmethylsulfonyl fluoride (PMSF) to prevent its proteolytic breakdown and/or conversion to angiotensin-II. Angiotensin-I generated in 90 minutes at 37° C. was then detected by specific radioimmunoassay with less than 0.02% cross reactivity to angiotensin-II, angiotensin-III or tetradecapeptide (renin substrate). […]

The target in another data set is T1, vascular CGRP1 receptor (Rattus norvegicus, UniProt Q63118+Q9JJ74).
T1 construct: from tissue; host or cells: vasculature of the intact animal (in vivo blood pressure response)
As to the kind of experiment: hypotensive response to intravenous amylin in vivo. The following applies: three times the dose used in this study.

Data set [3] in a line: plasma lactate and glucose after subcutaneous rat amylin in anesthetized rats. It counts as in vivo, Male Harlan Sprague Dawley rats. The following applies: 0.5 mg i.v. bolus + 1 mg/hr infusion before 100 μg s.c. rat amylin.
Data set [4] concerns amylin-induced hypocalcemia. As to the kind of experiment: amylin-induced hypocalcemia with antagonist infusion. In kind it is in vivo. The following applies: 1.5 mg + 3 mg/hr infusion, FIG. 4.
Data set [5] is described as follows: mean arterial pressure after amylin injection in rats. In kind it is in vivo, Male Harlan Sprague Dawley rats. The following applies: 100 μg rat amylin s.c., FIG. 1c. The protocol: as §1
Anesthesia was induced with 5% halothane, maintained at 2% during surgery and at 0.8-1% during recordings. Tracheotomy and cannulation of the right femoral artery and saphenous vein were performed. The femoral arterial line was connected to a pressure transducer (Spectramed P23XL transducer, Model 13-4615-58 amplifier, Gould, Cleveland, Ohio) and perfused with heparinized saline (2 U/ml) at 3.0 ml/hr. Colonic temperature was measured using a thermistor probe and controller (Model 73A, YSI, Yellow Springs, Ohio) which provided closed-loop control of core temperature by switching a heated operating table. The signal for mean arterial pressure was periodically sampled and stored with 12-bit precision at 1 Hz using a computerized data acquisition system (DT2801A A/D converters, DataTranslation, Marlboro, Mass.; AST Premium 386 computer, AST Research, Irvine, Calif.; Labtech Notebook software, Laboratory Technologies Corp, Wilmington, Mass.). […]

Entries after “also recorded” stand apart in the source; their conditions may differ. Where no end group is shown, it is not given here.

Chain of CGRP receptors (Q16602 23-461): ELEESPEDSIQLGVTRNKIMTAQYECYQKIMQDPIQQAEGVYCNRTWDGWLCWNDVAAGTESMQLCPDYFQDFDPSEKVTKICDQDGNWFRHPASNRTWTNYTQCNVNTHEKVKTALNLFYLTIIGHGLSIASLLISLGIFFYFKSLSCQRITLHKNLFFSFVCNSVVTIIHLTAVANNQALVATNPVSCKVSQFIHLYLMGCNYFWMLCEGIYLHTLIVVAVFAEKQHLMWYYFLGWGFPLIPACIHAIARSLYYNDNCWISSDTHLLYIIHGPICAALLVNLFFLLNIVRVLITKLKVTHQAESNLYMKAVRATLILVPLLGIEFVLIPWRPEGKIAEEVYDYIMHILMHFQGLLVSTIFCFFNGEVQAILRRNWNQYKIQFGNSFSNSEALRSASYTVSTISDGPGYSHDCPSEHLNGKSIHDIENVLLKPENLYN
Chain of CGRP receptors (O60894 27-148 partner): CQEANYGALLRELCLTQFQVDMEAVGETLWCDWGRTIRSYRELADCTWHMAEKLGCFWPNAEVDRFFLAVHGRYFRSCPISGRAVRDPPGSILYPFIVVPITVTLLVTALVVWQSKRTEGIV
T1 sequence (Q63118 24-464): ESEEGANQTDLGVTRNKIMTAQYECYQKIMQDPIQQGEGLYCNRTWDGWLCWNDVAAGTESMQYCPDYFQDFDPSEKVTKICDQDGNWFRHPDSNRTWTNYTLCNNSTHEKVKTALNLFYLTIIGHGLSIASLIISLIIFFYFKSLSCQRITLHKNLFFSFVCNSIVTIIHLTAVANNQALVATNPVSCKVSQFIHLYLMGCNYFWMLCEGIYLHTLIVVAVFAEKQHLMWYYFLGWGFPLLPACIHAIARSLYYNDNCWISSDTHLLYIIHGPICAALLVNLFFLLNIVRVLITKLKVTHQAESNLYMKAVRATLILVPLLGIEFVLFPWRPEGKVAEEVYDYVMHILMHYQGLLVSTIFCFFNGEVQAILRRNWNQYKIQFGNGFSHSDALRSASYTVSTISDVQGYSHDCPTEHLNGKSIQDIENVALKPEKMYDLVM
T1 sequence (Q9JJ74 27-148 partner): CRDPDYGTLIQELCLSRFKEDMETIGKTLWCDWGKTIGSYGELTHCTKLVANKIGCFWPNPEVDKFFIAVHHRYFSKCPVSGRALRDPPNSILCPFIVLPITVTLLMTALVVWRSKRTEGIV

“^8-37 CGRP (VTHRLAGLLSRSGGVVKNNFVPTNVGSKAF; ends and bridges not checked; UniProt P06881 90-119, looked up, fragment) [reference compound]”: in data set [1], the “agonist activity in the soleus muscle assay” value (“agonist activity” below) was “negligible agonist activity” and the “amylin antagonist action in the soleus muscle assay” value (from here on “amylin antagonist action”) is listed as “act as amylin antagonists”. Besides, the “insulin concentration 30 minutes following arginine infusion versus normal controls” value in data set [2] is reported as “almost twice as high”.
On to “^8-37 amylin (ATQRLANFLVHSSNNFGAILSSTNVGSNTY; ends and bridges not checked; UniProt P10997 41-70, looked up, fragment) [^ 8-37 amylin, amylin receptor antagonist]”, for which, in data set [1], the “agonist activity” value is “negligible agonist activity” and the “amylin antagonist action” value is listed as “act as amylin antagonists”.
Take “acetyl-^30 Asn^32 Tyr^8-32 calcitonin(salmon)”: the “affinity for CGRP receptors in vitro” value at CGRP receptors is given as “low affinity”. Also, the “amylin-induced elevation of plasma renin activity after antagonist preinfusion” value in the data set with plasma renin activity is reported as “no amylin-induced elevation”. Besides, at vascular CGRP1 receptor, the “block of the hypotensive response to intravenous amylin” value is recorded as “does not fully block”. Further, in data set [3], the “amylin-induced increase in plasma glucose after antagonist infusion” value is “prevented” and the “amylin-induced increase in plasma lactate after antagonist infusion” value is reported as “prevented”. Also, the “prevention of amylin-induced hypocalcemia” value in data set [4] is given as “did not prevent”.
In the case of ^8-32 calcitonin(salmon), in data set [1], the “agonist activity” value is recorded as “negligible agonist activity” and the “amylin antagonist action” value was “act as amylin antagonists”.
As for “rat amylin: Synthetic rat amylin (Bachem, Torrance, Calif.)”, the “change in mean arterial pressure” value in data set [5] is on record as “lack of change; also recorded: not associated with any significant change”.

(Values after patent US5376638A (Amylin Pharmaceuticals, Inc., priority 1992, dated 1994).)
